The values that follow come from US20190112272A1, “SYNTHETIC RETINOIDS FOR USE IN RAR MEDIATED CONDITIONS” (High Force Research Limited, priority 2016, published 2019).

In general, Kd refers to the equilibrium constant for the complex coming apart. What is called Ki is a measure of affinity in units of concentration, obtained from inhibition or displacement. Read a low Ki as a stronger hold on the target.

Data set [1] concerns SH-SY5Y cells. Kind of data set: Neurite outgrowth screening assay in SH-SY5Y cells. As to conditions: for effect on number of neurites compared to control: 10 nM retinoid, SH-SY5Y cells. It is filed as cell-based. How it is done:
(§1) (b) The influence of a low concentration of retinoids on number of neurites from SH-SS5Y cells was determined.

A further data set relates to ERK 1/2 phosphorylation. Kind of data set: Induction of ERK 1/2 phosphorylation (non-genomic response). It is filed as cell-based. The settings on record: for kinase activity (ERK 1/2 phosphorylation, non-genomic response): result in words. On the procedure:
as §1
(§2) The action of retinoic acid in the brain, the relative importance of genomic versus non-genomic activity of retinoic acid was investigated by determining whether some RAR ligands preferentially activated one pathway. Retinoic acid (FIG. 1) was used as a compound known to induce both genomic and non-genomic pathways of retinoic acid signalling. We measured its relative activity as an inducer of gene transcription using a construct in which the promoter element to which the retinoic acid receptor binds (retinoic acid response element, RARE) drives a LacZ reporter (genomic response). This was compared to a cell based assay to measure induction of ERK 1/2 phosphorylation (non-genomic response).

The test system of data set [2] is retinoic acid response element (RARE) driven LacZ reporter in Sil-15 reporter cells (F9-RARE-lacZ cells). As to the kind of experiment: RARE-driven LacZ reporter gene assay (genomic response, Sil-15 reporter cells, X-Gal assay). As to conditions: for activation of transcription via a RARE (genomic response): Sil-15 reporter cells, result in words. It is filed as cell-based.
From the text: as §2
Sil-15 reporter cells (also called F9-RARE-lacZ cells) were used in the X-Gal Assay. This cell line was derived from a stable transfection of F9 teratocarcinoma cells with a plasmid containing the LacZ gene under the control of a promoter linked to a retinoic acid response element (RARE). These cells were used to visually detect and semi-quantify the transcriptional activity of retinoic acid and other retinoids by monitoring β-galactosidase activity produced by the reporter cells in response to the retinoic acid/retinoids in the surrounding medium.
Sil-15 cells were plated in a 0.1% gelatin-coated 96-well plate and grown to about 85-90% confluence in Dulbecco's modified Eagle's medium (DMEM) containing 10% foetal calf serum and 0.8 mg/ml G418 sulfate for selection.
Serial dilutions of retinoids were prepared from the stock solutions under a red/orange light. A standard curve of RA was included in the experiment as a positive control. The RA/chemicals dilutions were added above the seeded Sil-15 cells in the 96-well plate and then the plate was wrapped with aluminium foil and incubated overnight in a humid atmosphere containing 5% CO2 at 37° C. All the concentrations for the RA and the two chemicals were tested in triplicates.
The next day, Sil-15 cells were washed twice with 1× PBS, fixed with 100 μl per well of 1% glutaraldehyde fixation solution for 15 minutes, washed again two times with 1× PBS and finally β-galactosidase activity was visualized by adding 100 μl of a freshly prepared X-Gal developing solution (5-bromo-4-chloro-3-indolyl-β-d-galactopyranoside) to each well. The plate was incubated overnight at 37° C. in 5% CO2. The plate was read on an Emax microplate reader at 650 nm.
On the technique in general: A reporter such as luciferase makes a cellular process visible.

The target of data set [3] is T1, Cellular Retinoic Acid Binding Protein II (CRABPII) (Homo sapiens, UniProt P29373).
T1 sequence (P29373 1-138): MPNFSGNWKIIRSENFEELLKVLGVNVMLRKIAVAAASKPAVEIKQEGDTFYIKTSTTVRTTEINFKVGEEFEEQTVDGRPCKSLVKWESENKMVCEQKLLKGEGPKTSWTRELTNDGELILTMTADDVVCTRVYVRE
Kind of data set: Fluorometric competitive binding titration of DC271 in CRABPII. An excerpt:
A number of highly fluorescent analogues of retinoic acid (ATRA) have been synthesised at Durham University for use in a variety of imaging and biophysical studies. The fluorescence emission of these fluorescent retinoids, including DC271, is highly solvatochromatic and the intensity of this emission is strongly dependent on environment. Therefore, in a nonpolar solvent, the emission is blue shifted (425-500 nm) and intense, while in a polar solvent the emission is red shifted (500-600 nm) and weak (severely quenched in water). […] When EC23® is titrated against CRABPII-DC271 complex the reduction in fluorescence emission intensity can be used to produce a competition binding curve allowing the estimation of the Ki (inhibition constant) of the competition of EC23® for DC271 bound to CRABPII. […] For the competition with EC23® a solution of [DC271] =49.8 nM and [CRABPII]=75 nM was prepared in PBS buffer (20 mM K2HPO4, 100mM KCl, pH 7.4 buffer) and the fluorescence intensity was measured at 450 nm with excitation at 380 nm. […] The emission intensity of DC271 was plotted against Log[EC23], and a one site competitive binding model was fit to the resultant data (FIG. 5). This provided an estimation of the Log Ki of the competitive binding reaction (Table 1).

The subject of data set [4] is SH-SY5Y cells. Kind of data set: Cell number / cell survival of SH-SY5Y cells. The settings on record: 10 nM, compared to same concentration of retinoic acid. The format is cell-based.
A short description of a further data set: Photostability. The format is physicochemical.
Data set [5] is described as follows: Induction of own catabolism in vivo. As to conditions: unlike retinoic acid.

Turning to `CC1=C(/C=C/C(C)=C/C=C/C(C)=C/C(=O)O)C(C)(C)CCC1` [ATRA, all-trans-retinoic acid], the “effect on number of neurites compared to control” value in the data set on SH-SY5Y cells [1] is on record as “no significant effect”. Further, the neurite outgrowth result with SH-SY5Y cells [1] (SH-SY5Y cell line, preliminary results, result in words) was “promotes neurite outgrowth”. Also, the EC50 with ERK 1/2 phosphorylation (95% confidence interval 32.8 nM to 138.8 nM, read-out: mean EC50, ERK 1/2 kinase phosphorylation) came out at 67.5 nM; in data set [2] (RARE-LacZ reporter, 95% confidence interval 90.7 pM to 391.4 pM, read-out: mean EC50, genomic activation) it was 0.188 nM. In addition, the “activation of transcription via a RARE (genomic response)” value (“activation of transcription via a RARE” below) in data set [2] is given as “induces gene transcription of a RAR driven reporter gene”.

For `COCCOCOc1cc2ccc(-c3ccc(C(=O)O)cc3)cc2cc1C12CC3CC(CC(C3)C1)C2` [CD2665], on ERK 1/2 phosphorylation, the “kinase activity (ERK 1/2 phosphorylation, non-genomic response)” value is “has significant kinase activity”. In addition, the “activation of transcription via a RARE” value in data set [2] is “shows no sign of activity to regulate gene expression via a RARE”.

`CC(C)N1CCC(C)(C)c2cc(C#Cc3ccc(C(=O)O)cc3)ccc21` [DC271]: in data set [3] (direct binding of the fluorescent retinoid, read-out: dissociation constant against CRABPII, Kd), the Kd is 49.1 ± 2.6 nM.

Regarding `CC1(C)CCC(C)(C)c2cc(C#Cc3ccc(C(=O)O)cc3)ccc21` [EC23®, 4-(5,5,8,8-tetramethyl-5,6,7,8-tetrahydro-naphthalen-2-ylethynyl) benzoic acid], the “number of SH-SY5Y cells” value in the data set on SH-SY5Y cells [4] is reported as “greatly enhances the number of SH-SY5Y cells”. Also, the photostability entry in the data set “Photostability” is listed as “photostable”. The “induction of its own catabolism in vivo” value in data set [5] is “does not induce its own catabolism in vivo”. Besides, the “effect on number of neurites compared to control” value in the data set on SH-SY5Y cells [1] is “strong and significant effect”. Moreover, the “capacity to induce ERK phosphorylation (western blotting of phosphorylated ERK)” value in the data set on ERK 1/2 phosphorylation (10 μM, after 20 minutes, versus same concentration of retinoic acid) was “much greater in its capacity to induce ERK phosphorylation than the same concentration of retinoic acid”. For the same compound, in data set [3] (competition with DC271 49.8 nM, CRABPII 75 nM, PBS pH 7.4, one site model), the Ki was found to be 3.16 nM. Also, in data set [2] (relative to retinoic acid (ATRA)), the “fold greater activity than retinoic acid (ATRA) in transactivation of a RAR driven reporter gene” value was “up to 500 fold”.

As for `C/C(=C\c1ccc(C(=O)O)cc1)c1ccc2c(c1)C(C)(C)CCC2(C)C` [TTNPB], the “kinase activity (ERK 1/2 phosphorylation, non-genomic response)” value at ERK 1/2 phosphorylation was “does not activate kinase activity”. Also, the “activation of transcription via a RARE” value in data set [2] was “can potently activate transcription via a RARE”.
